These results are taken from patent US8530404B2, “Compounds and methods for treatment of cancer” (FibroGen, Inc., priority 2005, dated 2013).

Marks after values point to notes of the source that are not given here.

Data set [1] concerns human H-460-GFP lung tumors. Put plainly: Orthotopically implanted human H-460-GFP lung tumor mouse xenograft, survival and metastasis (Example 3). The data set is classed as in vivo. To be noted: 7.5 mg/kg i.v. on days 3, 7, 11. The protocol:
To examine the effect of methods and compounds of the present invention in a metastatic model of tumor progression, compounds of the invention were administered to orthotopically implanted H-460-GFP xenografted animals. Tumor models employing surgical orthotopic implantation (SOI) into the organ of origin of the original tumor are regarded as representative of cancer progression and metastasis in humans. Orthotopic implantation of H-460 increases the rate of tumor metastasis.
This experiment is carried out as described in Example 1 above, with the following modifications. To aid in identification and scoring of metastasis, the human H-460 lung cancer cell line was replaced by genetically-engineered tumors of GFP-transfected H-460 cells. 1-2 mm^3 H460-GFP lung tumor fragments were implanted by surgical orthotopic implantation (SOI) and sutured directly into lung tissue. (Yang et al., (1998) Cancer Res 58:4217-4221.) Dosing was initiated immediately after successful confirmation of tumor take by fluorescent GFP imaging (˜5 days following tumor implantation). Doxorubicin (DOX, 7.5 mg/kg, i.v. administration) was used as a chemotherapy control, and was administered on treatment days 3, 7, and 11.
In addition to weekly caliper measurement of primary tumor size, GFP imaging was performed on animals to monitor primary tumor progression and metastasis, starting the first day of treatment. Study endpoints were reached when an average tumor size of 2 cc or three morbid mice appear in any one group, whichever occurs first, regardless of treatment duration. Each animal was checked daily for mortality or signs of morbidity. Morbid animals were frozen. All animals, including dead animals, were examined by GFP imaging for primary tumor and metastasis at necropsy. Imaging and caliper measurements were used to determine the effects of treatment. Primary tumors were excised, measured and weighed at necropsy. Blood samples were taken during terminal sacrifice and complete blood counts (CBC) and reticulocyte analysis were performed.
Tumor metastasis is associated with increased morbidity and mortality in humans with metastatic cancer and in animal models of metastatic cancer. […] The increased morbidity and mortality were recorded and animals were preserved for subsequent necropsy. The study was terminated after >3 animals were found morbid in the vehicle group on treatment day 14, at which point the remaining animals were sacrificed to evaluate and compare tumor progression in the various treatment groups.
To determine metastatic frequency, the thoracic and abdominal cavities of animals were examined by fluorescent imaging.
On the technique in general: A xenograft is tissue or cells of one species grown in another, often human tumour cells in immunodeficient mice.

For the next data set, the system named is human A549 lung tumors. Put plainly: Subcutaneously implanted human A549 lung tumor mouse xenograft (Example 2). The data set is classed as in vivo.
Data set [2] in a line: Complete blood counts and reticulocyte analysis in H-460 xenograft mice (Example 1). To be noted: study end; 15 mg/kg i.v. In kind it is in vivo, mouse. The protocol:
(§1) Sizes of the primary tumors were measured through the skin with calipers once per week. Tumor volumes were calculated by the formula V═(W^2*L)/2. Body weight of the mice in each group was also measured once per week during the experimental period. All animals were sacrificed following thirty-two days of treatment. Primary tumors were excised and weighed on an electronic balance. Blood samples were taken during terminal sacrifice and placed in microhematocrit tubes containing EDTA. Complete Blood Counts (CBC) and reticulocyte analysis were performed with the Cell Dyn 3700 analyzer (Abbott Diagnostics), as described by the manufacturer.

The next data set relates to H460 tumor cells. Put plainly: Subcutaneous H460 lung tumor xenograft, tumor growth delay study in combination with chemotherapeutics (Example 6). The data set is classed as in vivo, mouse. Conditions: Cmpd A 60 mg/kg p.o., paclitaxel 15 mg/kg i.v., carboplatin 120 mg/kg i.p.; for Median TTE (Time-to-Endpoint, tumor volume >= 2 cc): vehicle group 16.2. The protocol:
This study was used to determine the effect of combined treatments where compounds and methods of the invention were combined with conventional anti-tumor therapies. These experiments were performed essentially as described above in Example 3, except that 1×10^7 H460 tumor cells were implanted subcutaneously to the flanks of female Harlan nude animals. The number of animals in each group was 10. Treatments were initiated when tumors reached an average size of approximately 100 mm^3.
The study design was representative of tumor progression studies of the TGD (Tumor Growth Delay) type, using a protocol that required individual animals to be humanely euthanized after reaching a set endpoint of tumor volume greater than or equal to 2 cc.
These two chemotherapeutic agents are of two broad classes of conventional anti-tumor therapeutics: microtubule poisons (paclitaxcel); and DNA-directed agents, including the sub-classification of DNA alkylating agents (carboplatin). In tumor-bearing human patients, conventional anti-tumor therapy commonly use of one or both classes of chemotherapeutic agents.
The study was initiated with administration of conventional anti-tumor treatment or vehicle control, and followed one day after with administration of Compound A or vehicle control. […] (See Table 11 and Table 12 for compound and chemotherapeutic agent dosing schedule.)
Tumor progression was determined for each treatment group and is presented as median Time-to-Endpoint (TTE).

A further data set relates to human H-460 lung tumors. Put plainly: Subcutaneously implanted human H-460 lung tumor mouse xenograft (Example 1). In kind it is in vivo. Conditions: 15 mg/kg i.v. The text has this: Immuno-compromised athymic CD-1 nu/nu nude mice males (5-6 weeks old) were used in this study (Charles River Laboratories, Wilmington, Mass.). Animals were maintained in a HEPA-filtered environment during the experimental period. Cages, food, and bedding were autoclaved. Animal diets were obtained from Harlan Teklad (Madison, Wis.). […] The human H460 lung cancer cell line used was obtained from the National Cancer Institute. (Brower et al., (1986) Cancer Res 46:798-806.) Xenografted H-460 tumors are sensitive to chemotherapeutics commonly used in treatment of lung cancer. […] A stock tumor was established by subcutaneously injecting a cell suspension into nude mice. The resulting tumor was maintained in nude mice subcutaneously as tumor stock prior to use. Tumor implantation was performed when the stock tumors were in log phase of growth. Before implantation, tumor tissue was harvested from stock mice and placed in RPMI-1640 medium. Necrotic tissues were dissected away and viable tissues were cut into 1-2 mm^2 pieces. Tumor fragments were then transplanted subcutaneously to the right flank of the nude mice. Treatment (administration of compounds of the present invention) was started when the inoculated tumors reached approximately 100 mm^3, and continued for four weeks. […] [table] Sizes of the primary tumors were measured through the skin with calipers once per week. […] Body weight of the mice in each group was also measured once per week during the experimental period. All animals were sacrificed following thirty-two days of treatment. Primary tumors were excised and weighed on an electronic balance. Blood samples were taken during terminal sacrifice and placed in microhematocrit tubes containing EDTA. Complete Blood Counts (CBC) and reticulocyte analysis were performed with the Cell Dyn 3700 analyzer (Abbott Diagnostics), as described by the manufacturer.

Data set [3] can be described thus: Body weight in H-460 xenograft mice (Example 1). The data set is classed as in vivo, mouse. To be noted: 15 mg/kg i.v. The protocol:
as §1
Thus, differences in tumor progression as measured by mean tumor volumes could not be attributed to any generalized toxicity or suppression of normal metabolism that might have been detected by changes in body weights.

Take `COc1cccc2c1C(=O)c1c(O)c3c(c(O)c1C2=O)C[C@@](O)(C(=O)CO)C[C@@H]3O[C@H]1C[C@H](N)[C@H](O)[C@H](C)O1` [DOX, Doxorubicin, reference compound]: in data set [1] (vehicle 9/10), the “Metastatic Incidence (proportion of animals exhibiting mediastinal lymph node metastasis)” value is listed as 4/10^#. The “proportion of surviving animals” value in data set [1] (treatment day 9), in data set [1] (treatment day 11), in data set [1] (treatment day 12), in data set [1] (treatment day 13) and in data set [1] (treatment day 14) was 10/10 in each case.

Turning to `CC(=O)O[C@H]1C(=O)[C@@]2(C)[C@H]([C@H](OC(=O)c3ccccc3)[C@]3(O)C[C@H](OC(=O)[C@H](O)[C@@H](NC(=O)c4ccccc4)c4ccccc4)C(C)=C1C3(C)C)[C@]1(OC(C)=O)CO[C@@H]1C[C@@H]2O` [Taxol, paclitaxel, reference compound], the “tumor weight at necropsy, Mean” value in the data set on human A549 lung tumors (15 mg/kg i.v.) is 0.45 g. The “A549 mean tumor volume” value with human A549 lung tumors (week 0, 15 mg/kg i.v.) was 106 mm^3. For the same molecule, the “A549 mean tumor volume” value with human A549 lung tumors (week 1, 15 mg/kg i.v.) amounted to 130 mm^3. Also, the “A549 mean tumor volume” value in the data set with human A549 lung tumors (week 2, 15 mg/kg i.v.) stood at 152 mm^3. Moreover, the “A549 mean tumor volume” value in the data set with human A549 lung tumors (week 3, 15 mg/kg i.v.) worked out at 177 mm^3. In addition, the “A549 mean tumor volume” value with human A549 lung tumors (week 4, 15 mg/kg i.v.) was determined as 179 mm^3. Further, the “A549 mean tumor volume” value in the data set on human A549 lung tumors (week 5, 15 mg/kg i.v.) is reported as 186 mm^3. Further, the “A549 mean tumor volume” value with human A549 lung tumors (week 6, 15 mg/kg i.v.) was 231 mm^3. In addition, the “A549 mean tumor volume” value in the data set with human A549 lung tumors (week 7, 15 mg/kg i.v.) was found to be 275 mm^3. Further, the “A549 mean tumor volume” value in the data set on human A549 lung tumors (week 8, 15 mg/kg i.v.) worked out at 347 mm^3. The “A549 mean tumor volume” value in the data set on human A549 lung tumors (week 9, 15 mg/kg i.v.) turned out to be 360 mm^3. Besides, the “increase in mean tumor volume” value in the data set on human A549 lung tumors (within 1 week (7 days) from start, Taxol 15 mg/kg i.v., vehicle control 45%) was determined as 23%. In addition, in data set [2], the “Abs Retic (reticulocyte count)” value is on record as 462, the Baso % is 0.67%, the “Baso (basophils)” value came out at 70 µL⁻¹ and the EOS % is recorded as 0.83%. In data set [2], the “Eos (eosinophil count)” value turned out to be 70 µL⁻¹, the “HCT (hematocrit)” value is on record as 41.5%, the “HGB (hemoglobin)” value turned out to be 14.1 g/dL and the “IRF (immature RET fraction)” value is reported as 0.56. In data set [2], the Lymph % was found to be 24.7%, the “Lymph (lymphocytes)” value was 2600 µL⁻¹, the “MCH (mean corpuscular hemoglobin)” value is given as 15.6 pg and the “MCV (mean corpuscular volume)” value amounted to 45.9 fL. Moreover, in data set [2], the “Mono (monocytes)” value was determined as 300 µL⁻¹, the Neut % worked out at 70.8%, the “Neut (neutrophils)” value was 7400 µL⁻¹ and the “PLAT (platelets)” value is 1.943e+06 µL⁻¹. Moreover, in data set [2], the “RBC (red blood cells)” value worked out at 9.03e+06 µL⁻¹, the “RDW (RBC distribution width)” value was found to be 21.8%, the “RET (reticulocytes)” value is 5.1% and the “WBC (white blood cells)” value was 10400 µL⁻¹. For the same molecule, in the data set on H460 tumor cells, the “% TGD, Percent Tumor Growth Delay (vs. Group control)” value amounted to 104%; the “T-C (Test-control, difference of medians)” value was 16.9 days; the “Median TTE (Time-to-Endpoint, tumor volume >= 2 cc)” value worked out at 33.1 days. Also, the mean tumor volume in the data set on human H-460 lung tumors (day 0) stood at 83 mm^3. Also, the mean tumor volume with human H-460 lung tumors (day 10) was 387 mm^3. Further, the mean tumor volume in the data set on human H-460 lung tumors (day 17) is reported as 813** mm^3. Moreover, the mean tumor volume in the data set with human H-460 lung tumors (day 24) is 1160** mm^3. For the same molecule, the mean tumor volume in the data set on human H-460 lung tumors (day 31) was 1292** mm^3. Besides, the “Mean Tumor Weight at Necropsy” value in the data set with human H-460 lung tumors (day 32) is on record as 1.59 g. The “mean animal body weight” value in data set [3] (day 0) stood at 26.6 grams. Besides, the “mean animal body weight” value in data set [3] (day 10) is 29.5 grams. In addition, in data set [3] (day 17), the “mean animal body weight” value is recorded as 30.6 grams. Further, the “mean animal body weight” value in data set [3] (day 24) was determined as 31.1 grams. For the same molecule, the “mean animal body weight” value in data set [3] (day 31) amounted to 30.9 grams.

With `N.N.O=C([O-])C1(C(=O)[O-])CCC1.[Pt+2]` [carboplatin], in the data set with H460 tumor cells, the “% TGD, Percent Tumor Growth Delay (vs. Group control)” value is on record as 107%; the “T-C (Test-control, difference of medians)” value was 17.3 days; the “Median TTE (Time-to-Endpoint, tumor volume >= 2 cc)” value is 33.5 days.
